How the values were obtained:
Assay in all cases: Post-emergence efficacy of compounds of Formula (I) (B1), glasshouse
Assay type in all cases: in vivo
Lolium perenne (LOLPE) = settings: Application Rate 500 g/Ha, evaluated after 13 days; for pest or weed control at 500 g/ha: Lolium perenne, post-emergence, 312 h, read-out: Control of LOLPE after post-emergence application (100=total damage to plant; 0=no damage to plant)
Protocol: (§1) Seeds of a variety of test species were sown in standard Iaom-based soil in pots:— Ipomoea hederacea (IPOHE), Euphorbia heterophylla (EPHHL), Chenopodium album (CHEAL), Amaranthus palmeri (AMAPA), Lolium perenne (LOLPE), Digitaria sanguinalis (DIGSA), Eleusine indica (ELEIN), Echinochloa crus-galli (ECHCG), Setaria faberi (SETFA). After cultivation for 14 days (post-emergence) under controlled conditions in a glasshouse (at 24/16° C., day/night; 14 hours light; 65% humidity), the plants were sprayed with an aqueous spray solution derived from the dissolution of the technical active ingredient Formula (I) in a small amount of acetone and a special solvent and emulsifier mixture referred to as IF50 (11.12% Emulsogen EL360 TM+44.44% N-methylpyrrolidone+44.44% Dowanol DPM glycol ether), to create a 50 g/I solution which was then diluted to required concentration using 0.25% or 1% Empicol ESC70 (Sodium lauryl ether sulphate)+1% ammonium sulphate as diluent. The delivery of the aqueous spray solution was via a laboratory track sprayer which delivered the aqueous spray composition at a rate of 200 litres per hectare, using a flat fan nozzle (Teejet 11002VS) and an application volume of 200 litre/ha (at 2 bar).
(§2) The test plants were then grown in a glasshouse under controlled conditions (at 24/16° C., day/night; 14 hours light; 65% humidity) and watered twice daily. After 13 days the test was evaluated (100=total damage to plant; 0=no damage to plant).

[1] = test system: Digitaria sanguinalis (DIGSA); settings: Digitaria sanguinalis, post-emergence, 312 h; Application Rate 500 g/Ha; evaluated after 13 days; read-out: Control of DIGSA after post-emergence application (100=total damage to plant; 0=no damage to plant)
Protocol: as §1, §2

Eleusine indica (ELEIN) = settings: Application Rate 500 g/Ha, evaluated after 13 days; for pest or weed control at 500 g/ha: Eleusine indica, post-emergence, 312 h, read-out: Control of ELEIN after post-emergence application (100=total damage to plant; 0=no damage to plant)
Protocol: as §1, §2

[2] = test system: Echinochloa crus-galli (ECHCG); settings: Echinochloa crus-galli, post-emergence, 312 h, Application Rate 500 g/Ha; evaluated after 13 days; read-out: Control of ECHCG after post-emergence application (100=total damage to plant; 0=no damage to plant)
Protocol: as §1, §2

[3] = test system: Ipomoea hederacea (IPOHE); settings: Application Rate 500 g/Ha, evaluated after 13 days; for pest or weed control at 500 g/ha: Ipomoea hederacea, post-emergence, 312 h, read-out: Control of IPOHE after post-emergence application (100=total damage to plant; 0=no damage to plant)
Protocol: as §1, §2

[4] = test system: Amaranthus palmeri (AMAPA); settings: Amaranthus palmeri, post-emergence, 312 h; Application Rate 500 g/Ha; evaluated after 13 days; read-out: Control of AMAPA after post-emergence application (100=total damage to plant; 0=no damage to plant)
Protocol: as §1, §2

[5] = test system: Chenopodium album (CHEAL); settings: Chenopodium album, post-emergence, 312 h, Application Rate 500 g/Ha; evaluated after 13 days; read-out: Control of CHEAL after post-emergence application (100=total damage to plant; 0=no damage to plant)
Protocol: as §1, §2

Setaria faberi (SETFA) = settings: Setaria faberi, post-emergence, 312 h, Application Rate 500 g/Ha; evaluated after 13 days; read-out: Control of SETFA after post-emergence application (100=total damage to plant; 0=no damage to plant)
Protocol: as §1, §2

[6] = test system: Euphorbia heterophylla (EPHHL); settings: Euphorbia heterophylla, post-emergence, 312 h, Application Rate 500 g/Ha; evaluated after 13 days; read-out: Control of EPHHL after post-emergence application (100=total damage to plant; 0=no damage to plant)
Protocol: as §1, §2

SMILES | pest or weed control at 500 g/ha (Lolium perenne (LOLPE)) [%] | pest or weed control at 500 g/ha [1] [%] | pest or weed control at 500 g/ha (Eleusine indica (ELEIN)) [%] | pest or weed control at 500 g/ha [2] [%] | pest or weed control at 500 g/ha [3] [%] | pest or weed control at 500 g/ha [4] [%] | pest or weed control at 500 g/ha [5] [%] | pest or weed control at 500 g/ha (Setaria faberi (SETFA)) [%] | pest or weed control at 500 g/ha [6] [%] | Control of LOLPE after post-emergence application (100=total damage to plant; 0=no damage to plant) (Lolium perenne (LOLPE)) | Control of ELEIN after post-emergence application (100=total damage to plant; 0=no damage to plant) (Eleusine indica (ELEIN)) | Control of IPOHE after post-emergence application (100=total damage to plant; 0=no damage to plant) [3]
N#C[N-]C(=O)CC[n+]1ccc(-c2ncccn2)cn1 [Compound 1.033] | 90 | 100 | 100 | 90 | 50 | 100 | 100 | 90 | 100 |  |  | 
O=S(=O)([O-])CC[n+]1ccc(-c2ncccn2)cn1 [Compound 1.001, 2-(4-pyrimidin-2-ylpyridazin-1-ium-1-yl)ethanesulfonate] | 70 | 100 | 100 | 70 | 100 | 100 | 100 | 100 | 100 |  |  | 
O=S(=O)([O-])CC(O)C[n+]1ccc(-c2ncccn2)cn1 (stereo not drawn) [Compound 1.028] | 70 | 90 | 100 | 100 | 30 | 100 | 90 | 100 | 80 |  |  | 
O=C(CC[n+]1ccc(-c2ncccn2)cn1)OCc1ccccc1 [Compound 1.018] | 40 | 100 | 100 | 80 | 30 | 90 | 90 | 100 | 100 |  |  | 
N[C@@H](CCC[n+]1ccc(-c2ncccn2)cn1)C(=O)O [Compound 1.030, [(1S)-1-carboxy-4-(4-pyrimidin-2-ylpyridazin-1-ium-1-yl)butyl]-ammonium dichloride] | 60 | 100 | 90 | 100 | 60 | 100 | 100 | 100 | 100 |  |  | 
Cl.O=C(O)CC[n+]1ccc(-c2cccnn2)cn1.[Cl-] [Compound 1.034, 3-(4-pyridazin-1-ium-3-ylpyridazin-1-ium-1-yl)propanoic acid dichloride] |  | 100 |  | 100 |  | 100 | 100 | 100 | 100 | 90 | 100 | 60
